Data: patent US20100178260A1, “COMPOSITION COMPRISING A RETINOID, AN ADENOSINE-BASED NONPHOSPHATED COMPOUND, AND A SEMICRYSTALLINE POLYMER” (L'OREAL, priority 2009, published 2010)

Test system: Realskin reconstructed epidermis (filaggrin, marker for epidermal differentiation)
Experiment: Epidermal differentiation (filaggrin immunolabelling) in Realskin reconstructed epidermis model
Assay type: cell-based
Details: incubated from D 20, analysed from D 27
Description: The effects of the combination are evaluated with respect to epidermal differentiation and proliferation in the […] reconstructed epidermis model. […] The epidermises are analysed histologically and by filaggrin (marker for epidermal differentiation) immunolabelling starting from D 27. Filaggrin, which is a late differentiation marker, is a product of degradation of profilaggrin, a high MW phosphoprotein contained in the keratohyalin granules. At the moment the keratinocyte transforms into a corneocyte, the keratohyalin granules disaggregate, and the profillagrin undergoes sequential proteolysis which releases oligomers and then monomers of filaggrin. The results arc illustrated in FIG. 1.

Row | Compound | delay in differentiation (filaggrin immunolabelling) (Retinol at 250 μM) | differentiation (filaggrin immunolabelling) (Adenosine at 10 μM)
1 | CC1=C(/C=C/C(C)=C/C=C/C(C)=C/CO)C(C)(C)CCC1 [retinol] | −36% | –
2 | Nc1ncnc2c1ncn2[C@@H]1O[C@H](CO)[C@@H](O)[C@H]1O [adenosine] | – | +11%
